# Literature values as cited in publication PMC8942822 (The Journal of Biological Chemistry, 2022).
# Key:
# [1] = biological target: T1, SpaASLH (SLH domain trimer of S-layer protein SpaA, wild-type) (Paenibacillus alvei, UniProt C1JZ07)
# T1 sequence (C1JZ07 21-193): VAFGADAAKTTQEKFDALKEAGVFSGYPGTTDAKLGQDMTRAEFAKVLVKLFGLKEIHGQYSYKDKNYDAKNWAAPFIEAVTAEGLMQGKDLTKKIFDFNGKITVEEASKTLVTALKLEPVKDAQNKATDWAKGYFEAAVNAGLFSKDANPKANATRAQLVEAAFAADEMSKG
# [2] = tested on: SpaASLH/G46A/G109A; conditions: 20 °C, SpaASLH/G46A/G109A double mutant, previously published
# [3] = biological target: T2, SpaASLH/G109A (Paenibacillus alvei, UniProt C1JZ07, G109A)
# T2 sequence (C1JZ07 21-193 G109A): T1 sequence (C1JZ07 21-193)
# [4] = ITC, 20 °C, SpaASLH wild-type, previously published
# [5] = ITC, 20 °C, SpaASLH/G109A, previously published
Binding by ITC ([1]; ITC experiments with internal-repeat SCWP disaccharide),"KA [1, 4]","Kd [1, 4] [nM]","Stoichiometry [1, 4]","ΔG [1, 4] [kcal/mol]","ΔH [1, 4] [kcal/mol]","−TΔS [1, 4] [kcal/mol]",Binding by ITC [2],"Decrease of ITC binding affinity, G109A mutant (G1 binding) vs wild-type [3]","KA [3, 5]","Kd [3, 5] [nM]","Stoichiometry [3, 5]","ΔG [3, 5] [kcal/mol]","ΔH [3, 5] [kcal/mol]","−TΔS [3, 5] [kcal/mol]",SMILES
lack of corresponding measurable binding,,,,,,,,,,,,,,,"CO[C@@H]1O[C@@H]2CO[C@](C)(C(=O)O)O[C@H]2[C@H](O[C@@H]2O[C@H](CO)[C@@H](O)[C@H](O)[C@H]2NC(C)=O)[C@@H]1NC(C)=O [internal disaccharide, β-D-GlcNAc-(1→3)-4,6-Pyr-β-D-ManNAcOMe]"
,3.48 × 10^7 ± 0.36 M^−1,29,0.91 ± 0.04,-10.06 ± 0.155,-21 ± 3.733,10.93 ± 3.826,No binding,tenfold,4.48 × 10^6 ± 0.62 M^−1,226,0.92 ± 0.04,-8.917 ± 0.0789,-12.1 ± 1.74,3.186 ± 1.67,"CO[C@@H]1O[C@@H]2CO[C@](C)(C(=O)O)O[C@H]2[C@H](O)[C@@H]1NC(C)=O [monosaccharide, 4,6-Pyr-β-D-ManNAcOMe]"
